Source: article PMC3433420 (PLoS ONE, 2012)
“And” between values parts separate entries of the source, which are not always exact repeats. Identical values can stand only once. Residues, ends and D or L forms follow the SMILES beside them.

Assays:
NCK2 SH2 domain = NCK2 SH2 domain (Homo sapiens, UniProt O43639); assay: FP saturation binding assay
[1] = target: T1, PTPN11-NC tandem SH2 domains (Homo sapiens, UniProt Q06124); assay: FP saturation binding assay
T1 sequence (Q06124 6-216 limits assumed): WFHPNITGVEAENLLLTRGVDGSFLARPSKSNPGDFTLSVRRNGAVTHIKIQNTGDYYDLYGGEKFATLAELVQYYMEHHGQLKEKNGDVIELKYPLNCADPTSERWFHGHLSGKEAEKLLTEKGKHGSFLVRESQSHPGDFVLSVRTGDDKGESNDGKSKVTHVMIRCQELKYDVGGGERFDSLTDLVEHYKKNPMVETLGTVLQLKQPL

SH2D1A SH2 domain = target: T2, SH2D1A SH2 domain (Homo sapiens, UniProt O60880); assay: FP saturation binding assay
T2 sequence (O60880 6-104 limits assumed): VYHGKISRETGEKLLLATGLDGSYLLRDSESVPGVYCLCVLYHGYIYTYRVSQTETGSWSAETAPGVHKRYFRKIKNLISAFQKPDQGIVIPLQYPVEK

SH2D1B SH2 domain = target: T3, SH2D1B SH2 domain (Homo sapiens, UniProt O14796); assay: FP saturation binding assay
T3 sequence (O14796 5-101 limits assumed): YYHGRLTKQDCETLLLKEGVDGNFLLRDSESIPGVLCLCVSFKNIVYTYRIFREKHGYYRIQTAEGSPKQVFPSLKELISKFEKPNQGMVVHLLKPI

[2] = target: SYK-NC tandem SH2 domains (Homo sapiens, UniProt P43405); assay: FP saturation binding assay
SH2 and PTB domains = assay: In-house protein microarrays (with or without 5 mM DTT), protein named per line; format: binding, human; settings: in-house protein microarray, protein named in c0 of the line, sheet ErbB4 pY733 (18-mer)
Description: 300 pL of purified recombinant proteins and a thioredoxin tag control were spotted at a concentration of ∼40 µM in duplicate onto aldehyde-coated microscope slides (Erie Scientific Company, Portsmouth, NH) using a Nano-Plotter (NP) 2.1/E noncontact microarrayer (GeSiM, Munich, Germany). 16 identical microarrays per slide were printed in a 2×8 (column by row) format with distances of 9 mm between individual arrays; each array consisted of a 14×14 configuration of spots 400 µm apart. Following printing at a constant humidity level of 50%, slides were desiccated overnight and stored at −80°C. For peptide probing, array slides were transferred to 96-well microplates (TeleChem International, Inc., Sunnyvale, CA) and sandwiched with silicone gaskets. Prior to peptide addition, aldehyde sites were quenched with buffer B (20 mM HEPES, 100 mM KCl, 0.1% Tween-20, 5 mM DTT, pH 7.8) containing 1% bovine serum albumin (BSA) (w/v) for one hour at room temperature; moderate agitation was applied in a plate shaker (IKA, Germany) to displace glycerol from the surface area of protein sample spots. […] The arrays were subsequently washed once with 300 µL of buffer B and once with 300 µL of ddH2O. Residual water was removed by centrifugation; slides were stored under desiccation in the dark until analysis.
Microarray slides were scanned at a resolution of 10 µm using a GenePix 4000B microarray scanner and analyzed using GenePix Pro v6.0 software (Molecular Devices, Sunnyvale, CA). To independently visualize protein spots irrespective of peptide binding, samples were printed simultaneously with 400 nM of Cyanine-5 (Cy5) labeled bovine serum albumin (BSA). […] Following spot layout identification via Cy5 labeled BSA, the mean fluorescence intensity of rhodamine for duplicate protein spots was quantified and normalized by subtracting the corresponding mean fluorescence intensity of thioredoxin. Normalized fluorescence values were then imported into MATLAB and KDs determined as previously described.

YES1 SH2 domain = target: T4, YES1 SH2 domain (Homo sapiens, UniProt P07947); assay: FP saturation binding assay; settings: high-confidence ErbB interactions
T4 construct: 6X His; thioredoxin; made in house; host or cells: BL21(DE3)pLysS E. coli
Summary of the method: (§1)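 Rhodamine-labeled phosphopeptides (10 nM final) titrated with SH2 domain protein (0.002–10 µM, 12 points) in 20 mM HEPES, 100 mM KCl, 0.1% Tween-20, 5 mM DTT, pH 7.8; 20 min, room temperature, dark. FP read at 530/555 nm; KD fitted by nonlinear regression after thioredoxin background correction and outlier removal.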

[3] = target: T5, PLCG1-NC tandem SH2 domains (Homo sapiens, UniProt P19174); assay: FP saturation binding assay; settings: Protein PLCG1-NC; FP saturation binding, high-confidence ErbB interactions; mean over replicate hits
T5 construct: the tandem protein was included in our analysis with all internal amino acids linking the domains; 6X His; thioredoxin; made in house; host or cells: E. coli BL21(DE3)pLysS
T5 sequence (P19174 550-756 limits assumed): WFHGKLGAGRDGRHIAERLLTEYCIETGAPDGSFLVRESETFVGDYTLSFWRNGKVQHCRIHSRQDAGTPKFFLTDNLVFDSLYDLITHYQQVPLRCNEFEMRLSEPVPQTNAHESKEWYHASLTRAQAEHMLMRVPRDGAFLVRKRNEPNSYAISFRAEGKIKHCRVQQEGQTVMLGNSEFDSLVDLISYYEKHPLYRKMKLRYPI

[4] = target: PIK3R2-NC tandem SH2 domains (Homo sapiens, UniProt O00459); assay: FP saturation binding assay
RASA1-N SH2 domain = target: T6, RASA1-N SH2 domain (Homo sapiens, UniProt P20936); assay: FP saturation binding assay
T6 sequence (P20936 181-272 limits assumed): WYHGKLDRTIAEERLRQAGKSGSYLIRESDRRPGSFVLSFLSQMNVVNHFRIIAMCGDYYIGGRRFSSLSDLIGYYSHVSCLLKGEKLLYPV

SHC1-PTB domain = target: T7, SHC1-PTB domain (Homo sapiens, UniProt P29353); assay: FP saturation binding assay
T7 sequence (P29353 156-339 limits assumed): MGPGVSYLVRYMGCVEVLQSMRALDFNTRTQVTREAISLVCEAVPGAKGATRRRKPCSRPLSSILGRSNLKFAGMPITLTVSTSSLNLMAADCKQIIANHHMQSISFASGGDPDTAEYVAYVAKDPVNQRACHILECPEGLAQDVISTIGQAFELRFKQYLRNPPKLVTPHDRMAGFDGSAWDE

PIK3R1-N SH2 domain = target: T8, PIK3R1-N SH2 domain (Homo sapiens, UniProt P27986); assay: biochemical; format: binding; settings: protein PIK3R1-N; high-confidence ErbB interactions; mean of replicate hits
T8 construct: thioredoxin; made in house; host or cells: E. coli BL21(DE3)pLysS

PIK3R3-N SH2 domain = target: T9, PIK3R3-N SH2 domain (Homo sapiens, UniProt Q92569); assay: FP saturation binding assay; settings: protein PIK3R3-N; high-confidence ErbB interactions; mean of replicate hits
T9 construct: 6X His; thioredoxin; made in house; host or cells: E. coli BL21(DE3)pLysS
Summary of the method: as §1

[5] = target: T10, PIK3R3-NC tandem SH2 domains (Homo sapiens, UniProt Q92569); assay: FP saturation binding assay; settings: protein PIK3R3-NC; high-confidence ErbB interactions; mean of replicate hits
T10 construct: the tandem protein was included in our analysis with all internal amino acids linking the domains; 6X His; thioredoxin; made in house; host or cells: E. coli BL21(DE3)pLysS
Summary of the method: as §1

PTK6 SH2 domain = target: T11, PTK6 SH2 domain (Homo sapiens, UniProt Q13882); assay: FP saturation binding assay; settings: protein PTK6; high-confidence ErbB interactions; mean of replicate hits
T11 construct: from the PTK6 SH2 domain; 6X His; thioredoxin; made in house; host or cells: E. coli BL21(DE3)pLysS
Summary of the method: as §1

SRC SH2 domain = target: T12, SRC SH2 domain (Homo sapiens, UniProt P12931); assay: FP saturation binding assay; settings: protein SRC, high-confidence ErbB interactions, mean of replicate hits
T12 construct: between the c-Src SH2 domain and ErbB1 in our FP assay; 6X His; thioredoxin; made in house; host or cells: E. coli BL21(DE3)pLysS
Summary of the method: as §1

PLCG1-C SH2 domain = target: T13, PLCG1-C SH2 domain (Homo sapiens, UniProt P19174); assay: biochemical; format: binding; settings: protein PLCG1-C; high-confidence ErbB interactions; mean of replicate hits
T13 construct: The 6X His-tagged SH2 domain proteins used in the assay, PLCG1-C, SHC4, VAV2; thioredoxin; made in house; host or cells: E. coli BL21(DE3)pLysS
T13 sequence (P19174 668-756 limits assumed): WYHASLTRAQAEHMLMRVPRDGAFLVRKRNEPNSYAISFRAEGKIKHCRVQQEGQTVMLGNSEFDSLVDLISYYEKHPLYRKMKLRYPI

GRAP2 SH2 domain = target: T14, GRAP2 SH2 domain (Homo sapiens, UniProt O75791); assay: FP saturation binding assay
T14 sequence (O75791 58-149 limits assumed): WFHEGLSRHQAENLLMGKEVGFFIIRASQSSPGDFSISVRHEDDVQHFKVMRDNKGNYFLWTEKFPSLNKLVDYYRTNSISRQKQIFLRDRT

SH2D2A SH2 domain = SH2D2A SH2 domain (Homo sapiens, UniProt Q9NP31); assay: FP saturation binding assay
Sequence of SH2D2A SH2 domain (Q9NP31 95-186 limits assumed): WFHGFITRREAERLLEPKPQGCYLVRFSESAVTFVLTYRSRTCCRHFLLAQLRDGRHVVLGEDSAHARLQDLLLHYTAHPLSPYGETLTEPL

T4 sequence (P07947 158-255 limits assumed): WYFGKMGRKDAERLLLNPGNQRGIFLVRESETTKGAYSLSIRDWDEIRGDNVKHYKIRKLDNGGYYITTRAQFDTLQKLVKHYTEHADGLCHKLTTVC
Sequence of PIK3R2-NC tandem SH2 domains (O00459 330-716 limits assumed): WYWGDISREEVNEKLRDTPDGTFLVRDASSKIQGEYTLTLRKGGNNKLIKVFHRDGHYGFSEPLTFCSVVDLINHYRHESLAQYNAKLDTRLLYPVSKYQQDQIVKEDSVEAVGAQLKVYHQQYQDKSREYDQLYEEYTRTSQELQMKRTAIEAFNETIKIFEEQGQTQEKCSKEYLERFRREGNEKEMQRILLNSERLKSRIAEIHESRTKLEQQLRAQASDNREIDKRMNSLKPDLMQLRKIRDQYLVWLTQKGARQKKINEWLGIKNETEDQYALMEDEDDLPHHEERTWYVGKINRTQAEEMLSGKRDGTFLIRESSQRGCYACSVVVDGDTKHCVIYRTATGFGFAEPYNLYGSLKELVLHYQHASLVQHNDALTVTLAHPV
T12 sequence (P12931 151-248 limits assumed): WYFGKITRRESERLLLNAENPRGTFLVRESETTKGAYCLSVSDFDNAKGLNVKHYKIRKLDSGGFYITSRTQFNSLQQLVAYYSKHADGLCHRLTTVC
T11 sequence (Q13882 78-170 limits assumed): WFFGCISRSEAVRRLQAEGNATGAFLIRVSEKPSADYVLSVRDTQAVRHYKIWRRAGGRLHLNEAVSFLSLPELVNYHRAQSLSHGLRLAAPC
T8 sequence (P27986 333-428 limits assumed): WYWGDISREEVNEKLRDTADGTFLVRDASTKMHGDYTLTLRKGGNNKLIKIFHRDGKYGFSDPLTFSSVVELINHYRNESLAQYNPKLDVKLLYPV
Sequence of NCK2 SH2 domain (O43639 285-380 limits assumed): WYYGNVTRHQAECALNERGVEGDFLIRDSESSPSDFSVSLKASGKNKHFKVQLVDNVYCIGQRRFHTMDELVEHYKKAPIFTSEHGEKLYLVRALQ

## CC(C)C[C@H](NC(=O)[C@H](Cc1ccc(OP(=O)(O)O)cc1)NC(=O)[C@H](CCC(=O)O)NC(=O)[C@@H]1CCCN1C(=O)[C@H](CC(N)=O)NC(=O)[C@@H](N)CCC(=O)O)C(=O)N[C@H](C(=O)N1CCC[C@H]1C(=O)N[C@@H](CCC(N)=O)C(=O)NCC(=O)NCC(=O)N[C@@H](C)C(=O)N[C@@H](CC(=O)O)C(=O)O)[C@@H](C)O [ErbB2 1196 13-mer]
NCK2 SH2 domain
  Kd: 3.72 µM

## CC[C@H](C)[C@H](NC(=O)[C@H](Cc1c[nH]c2ccccc12)NC(=O)[C@H](CC(C)C)NC(=O)CNC(=O)[C@H](CCCCN)NC(=O)[C@H](Cc1ccc(OP(=O)(O)O)cc1)NC(=O)[C@@H](NC(=O)[C@@H](NC(=O)CNC(=O)[C@@H](N)Cc1ccccc1)[C@@H](C)O)C(C)C)C(=O)N1CCC[C@H]1C(=O)N[C@@H](CCC(=O)O)C(=O)N[C@@H](CC(=O)O)C(=O)O [ErbB1 pY727] (HELM PEPTIDE1{F.G.T.V.[O=C([C@H](Cc1ccc(OP(=O)(O)O)cc1)N[*:1])[*:2]].K.G.L.W.I.P.E.D}$$$$V2.0)
[1]
  Kd: 3.15 µM
SH2D1A SH2 domain
  Kd: 2.71 µM
SH2D1A SH2 domain; FP saturation assay
  KD range of recruitment of SH2D1A (SHD1A [sic]): in the nM KD range
SH2D1B SH2 domain
  Kd: 0.24 µM
SH2D1B SH2 domain; FP saturation assay
  KD range of recruitment of SH2D1B: in the nM KD range
[2]
  Kd: 11.5 µM

## LGSGAFGTVpYKGIWVPEd [ErbB4 pY733 (18-mer), N-terminally rhodamine-labeled 18-mer phosphopeptide]
SH2 and PTB domains; PM Assay Replicate # 39307, Array Fabrication # 39320
  Kd: 0.8 µM and 0.4 µM
SH2 and PTB domains; PM Assay Replicate # 39334, Array Fabrication # 39329
  Kd: 0.79 µM

## CC(C)C[C@H](NC(=O)[C@H](CC(N)=O)NC(=O)[C@H](CC(=O)O)NC(=O)[C@@H](N)Cc1ccccc1)C(=O)N[C@@H](Cc1ccc(OP(=O)(O)O)cc1)C(=O)N[C@@H](Cc1ccc(O)cc1)C(=O)N[C@@H](Cc1c[nH]c2ccccc12)C(=O)N[C@@H](CC(=O)O)C(=O)N[C@@H](CCC(N)=O)C(=O)N[C@@H](CC(=O)O)C(=O)N1CCC[C@H]1C(=O)N1CCC[C@H]1C(=O)N[C@@H](CCC(=O)O)C(=O)N[C@@H](CC(=O)O)C(=O)O [ErbB2 1221 13-mer] (HELM PEPTIDE1{F.D.N.L.[O=C([C@H](Cc1ccc(OP(=O)(O)O)cc1)N[*:1])[*:2]].Y.W.D.Q.D.P.P.E.D}$$$$V2.0)
YES1 SH2 domain; Protein YES1, FP saturation binding, mean over replicate hits
  Kd: 2.41 µM
[3]
  Kd: 2.27 µM
[4]
  Kd: 11.2 µM
RASA1-N SH2 domain
  Kd: 1.12 µM
SHC1-PTB domain
  Kd: 1.98 µM

## CC(C)C[C@H](NC(=O)[C@H](Cc1ccc(O)cc1)NC(=O)[C@H](CC(C)C)NC(=O)[C@@H]1CCCN1C(=O)[C@H](CCC(=O)O)NC(=O)[C@H](CC(N)=O)NC(=O)[C@@H](NC(=O)[C@H](Cc1ccc(OP(=O)(O)O)cc1)NC(=O)[C@H](CCC(=O)O)NC(=O)[C@H](CC(=O)O)NC(=O)[C@H](CCC(=O)O)NC(=O)[C@H](C)NC(=O)[C@H](CCCCN)NC(=O)[C@@H]1CCCN1C(=O)[C@@H]1CCCN1C(=O)CNC(=O)[C@@H](N)CC(N)=O)C(C)C)C(=O)N[C@@H](CC(=O)O)C(=O)O [ErbB4 1202 18-mer] (HELM PEPTIDE1{N.G.P.P.K.A.E.D.E.[O=C([C@H](Cc1ccc(OP(=O)(O)O)cc1)N[*:1])[*:2]].V.N.E.P.L.Y.L.D}$$$$V2.0)
PIK3R1-N SH2 domain
  Kd: 5.39 µM
PIK3R3-N SH2 domain
  Kd: 2.41 µM
[5]
  Kd: 1.21 µM
PTK6 SH2 domain
  Kd: 2.04 µM
SRC SH2 domain
  Kd: 2.3 µM
YES1 SH2 domain; protein YES1, mean of replicate hits
  Kd: 8.4 µM
PLCG1-C SH2 domain
  Kd: 1.92 µM
GRAP2 SH2 domain
  Kd: 2.29 µM
[4]
  Kd: 1.84 µM
SH2D2A SH2 domain
  Kd: 6 µM

## CC[C@H](C)[C@H](NC(=O)[C@@H](N)CCC(=O)O)C(=O)NCC(=O)N[C@@H](Cc1c[nH]cn1)C(=O)N[C@@H](CO)C(=O)N1CCC[C@H]1C(=O)N1CCC[C@H]1C(=O)N1CCC[C@H]1C(=O)N[C@@H](C)C(=O)N[C@@H](Cc1ccc(OP(=O)(O)O)cc1)C(=O)N[C@H](C(=O)N1CCC[C@H]1C(=O)N[C@@H](CCSC)C(=O)N[C@@H](CO)C(=O)NCC(=O)N[C@@H](CC(N)=O)C(=O)N[C@@H](CCC(N)=O)C(=O)N[C@@H](CC(=O)O)C(=O)O)[C@@H](C)O [ErbB4 1056 18-mer] (HELM PEPTIDE1{E.I.G.H.S.P.P.P.A.[O=C([C@H](Cc1ccc(OP(=O)(O)O)cc1)N[*:1])[*:2]].T.P.M.S.G.N.Q.D}$$$$V2.0)
SRC SH2 domain; FP
  Kd: 9.47 µM
